Source: ChEMBL document CHEMBL1147876, “Synthesis of novel 3-amino-2-(4-chloro-2-mercaptobenzenesulfonyl)-guanidine derivatives as potential antitumor agents” (Eur J Med Chem, 2007)
Calls of active or inactive are those of the source.

Assays:
Format in all cases: functional, cell-based
NCI-H460 = experiment: Anticancer activity against human NCI-H460 cells at 100 uM
SF-268 = experiment: Anticancer activity against human SF268 cells at 100 uM
MCF7 = experiment: Anticancer activity against human MCF7 cells at 100 uM

Measured: Activity

C=CCN/C(=N/S(=O)(=O)c1cc(C(=O)Nc2ccc(Cl)cc2)c(Cl)cc1SC)NN
inactive: all assays above

C#CCN/C(=N/S(=O)(=O)c1cc(C)c(Cl)cc1S)NN
inactive: all assays above

C#CCN/C(=N/S(=O)(=O)c1cc(C)c(Cl)cc1SCC(N)=O)NN
inactive: all assays above

C#CCN/C(=N/S(=O)(=O)c1cc(C(=O)Nc2ccccc2)c(Cl)cc1S)NN
inactive: all assays above

C#CCN/C(=N/S(=O)(=O)c1cc(C)c(Cl)cc1SCC#N)NN
inactive: all assays above

C#CCN/C(=N/S(=O)(=O)c1cc(C)c(Cl)cc1SCC(=O)c1ccccc1)NN
inactive: all assays above

C=CCN/C(=N/S(=O)(=O)c1cc(C(=O)Nc2ccccc2)c(Cl)cc1SCC(N)=O)NN
inactive: all assays above

C=CCN/C(=N/S(=O)(=O)c1cc(C)c(Cl)cc1SC)N/N=C/c1ccc([N+](=O)[O-])o1
inactive: all assays above
